Measurements from patent US11787816B2, “Chlorin compound, and preparation and use thereof” (Southwest Jiaotong University, priority 2021, dated 2023).

Legend:
[1] = tested on: murine mammary carcinoma 4T1 cells; test: Photosensitizer-mediated PDT, in vitro proliferation (MTT), 4T1; type: cell-based; conditions: Table 8a, 10 μg/mL; for cell viability (%), +8 J/cm^2 / viability at 10 µg/mL: 660 nm; for viability at 10 µg/mL: Mus musculus, light or radiation study, 8 J/cm^2, read-out: cell viability (%), +8 J/cm^2
Protocol: (§1) Several kinds of tumor cells (human cervical cancer Hela cells, human hepatocellular carcinoma huh-7 cells and murine mammary carcinoma 4T1 cells) cultured in vitro from a variety of tissues were taken as cell models, so as to investigate the photodynamic effects mediated by different doses of CEFN, CEFO, Ce6 and HPPH on the three different tumor cells (n=3). The specific experimental procedures were carried out as follows.
(§2) Cells in the logarithmic growth phase were harvested and seeded in a 24-well plate. After growing to a confluence of 70-80%, the cells were randomly divided into a control group (free of drug and light irradiation), a drug group and a photodynamic group. The CEFN, CEFO, Ce6 and HPPH were added respectively in dark, and for each drug, four final concentrations 1, 2, 5, and 10 μg/mL were set with 3 replicates for each group. After the co-incubation, the groups were treated individually. Regarding the photodynamic group, the light irradiation was performed at a wavelength of 660 nm and three different light intensities, i.e., 2, 4 and 8 J/cm^2. After that, each group was digested, and were inoculated into a 96-well plate at 100 μL per well with 4 replicates for each treatment. 24 hours later, the 96-well plate was subjected to MTT assay as follows. Each well was added with 20 μL of MTT (3-4,5-dimethylthiazol-2,5-diphenyltetrazolium bromide) solution in the dark and incubated for 4 hours. The supernatant was discarded, and the residue was dissolved with 150 μL of dimethyl sulfoxide for 15 min. After that, the 96-well plate was measured by a microplate reader for the absorbance (OD value). The relative cell viability was calculated as follows: relative cell viability=OD value of experimental group/OD value of control group*100%.
(§3) In this experiment, photodynamic effect mediated by the compounds (except CEFO and CEFN) in different Examples of this disclosure on the murine mammary carcinoma 4T1 cells was investigated. The experimental procedures are carried out as follows. Cells in the logarithmic growth phase were harvested and seeded in a 24-well plate. After growing to a confluence of 70-80%, the cells were randomly divided into multiple photodynamic groups and multiple no-light control groups. The compounds (as shown in Table 8a) with a final concentration of 10 μg/mL were added to each group respectively in dark with 3 replicates for each group, so as to co-incubate the cells with the drug. Regarding the multiple photodynamic groups, the light irradiation was performed at a wavelength of 660 nm and the light intensity of 8 J/cm^2. After that, each group was digested, and were inoculated into a 96-well plate at 100 μL per well with 4 replicates for light treatment and no light treatment. 24 hours later, the 96-well plate was measured by MTT assay as follows. Each well was added with 20 μL of MTT (3-4,5-dimethylthiazol-2,5-diphenyltetrazolium bromide) solution in the dark and incubated for 4 hours. The supernatant was discarded, and the residue was dissolved with 150 μL of dimethyl sulfoxide for 15 min. After that, the 96-well plate was measured by a microplate reader for the absorbance (OD value). The relative cell viability of the murine mammary carcinoma 4T1 cells was calculated as follows according to the measured absorbance (OD value) in each group: relative cell viability=OD value of experimental group/OD value of control group*100%.

[2] = as above; type: cell-based, murine; conditions: mouse, 4T1 cells, Table 8a, 10 μg/mL, no light, read-out: cell viability (%), No light
Protocol: as §1, §2, §3

SMILES	cell viability (%), +8 J/cm^2 [1]	cell viability (%), No light [1]	viability at 24 h, 10 μg/mL [2]	viability at 10 µg/mL [1]
CCCCCCCCCCCOCc1c(C)c2cc3nc(c(C)c4[nH]c(cc5nc(cc1[nH]2)C(C)=C5CC)c(C)c4C(=O)O)[C@@H](CCC(=O)O)[C@@H]3C [Example 6]	4 ± 3%	102 ± 2%		
CCCCCCCCCCNCc1c(C)c2cc3nc(c(C)c4[nH]c(cc5nc(cc1[nH]2)C(C)=C5CC)c(C)c4C(=O)O)[C@@H](CCC(=O)O)[C@@H]3C [Example 22]			99 ± 2%	10 ± 4%
CCCCCCCCNCc1c(C)c2cc3nc(c(C)c4[nH]c(cc5nc(cc1[nH]2)C(C)=C5CC)c(C)c4C(=O)O)[C@@H](CCC(=O)O)[C@@H]3C [Example 24]			100 ± 2%	9 ± 5%
CCCCCCOCc1c(C)c2cc3nc(c(C)c4[nH]c(cc5nc(cc1[nH]2)C(C)=C5CC)c(C)c4C(=O)O)C(CCC(=O)O)C3C (stereo not drawn) [Example 1, 3-hexyloxymethyl-3-devinyl-chlorin e4]	2 ± 5%	103 ± 1%		
CCCCCNCc1c(C)c2cc3nc(c(C)c4[nH]c(cc5nc(cc1[nH]2)C(C)=C5CC)c(C)c4C(=O)O)[C@@H](CCC(=O)O)[C@@H]3C [Example 26]			102 ± 1%	6 ± 5%
CCCCCCCCCNCc1c(C)c2cc3nc(c(C)c4[nH]c(cc5nc(cc1[nH]2)C(C)=C5CC)c(C)c4C(=O)O)[C@@H](CCC(=O)O)[C@@H]3C [Example 23]			102 ± 2%	8 ± 5%
CCCCCCCCCCCNCc1c(C)c2cc3nc(c(C)c4[nH]c(cc5nc(cc1[nH]2)C(C)=C5CC)c(C)c4C(=O)O)[C@@H](CCC(=O)O)[C@@H]3C [Example 21]			101 ± 1%	9 ± 2%
CCCCCCNCc1c(C)c2cc3nc(c(C)c4[nH]c(cc5nc(cc1[nH]2)C(C)=C5CC)c(C)c4C(=O)O)[C@@H](CCC(=O)O)[C@@H]3C [Example 16, 3-n-hexylaminomethyl-3-devinyl-chlorin e4]	7 ± 5%	103 ± 3%		
CCCCCCCCCCCCNCc1c(C)c2cc3nc(c(C)c4[nH]c(cc5nc(cc1[nH]2)C(C)=C5CC)c(C)c4C(=O)O)[C@@H](CCC(=O)O)[C@@H]3C [Example 20]			104 ± 1%	6 ± 3%
CCCNCc1c(C)c2cc3nc(c(C)c4[nH]c(cc5nc(cc1[nH]2)C(C)=C5CC)c(C)c4C(=O)O)[C@@H](CCC(=O)O)[C@@H]3C [Example 28]			104 ± 1%	7 ± 4%
CCCCCCCNCc1c(C)c2cc3nc(c(C)c4[nH]c(cc5nc(cc1[nH]2)C(C)=C5CC)c(C)c4C(=O)O)[C@@H](CCC(=O)O)[C@@H]3C [Example 25]			100 ± 2%	5 ± 3%
CCCCNCc1c(C)c2cc3nc(c(C)c4[nH]c(cc5nc(cc1[nH]2)C(C)=C5CC)c(C)c4C(=O)O)[C@@H](CCC(=O)O)[C@@H]3C [Example 27]			103 ± 3%	6 ± 2%
